Experimental data: patent US10064909B2, “Compositions and methods for chronic use of a weight-gaining compound” (priority 2015, dated 2018)

Assays:
[1] = Dose titration laboratory study (10 days): food consumption and bodyweight; assay type: in vivo; settings: cats
Experimental: This study defined a capromorelin oral solution dose regime that provides increased food intake and weight gain and the accompanying desired profile of IGF-1 serum levels. Laboratory adult cats were housed individually and divided into five groups (3/sex/group; n=6/group). Cats were dosed once daily for 10 consecutive days with either placebo, 1 mg/kg AT-002, 2 mg/kg AT-002, 3 mg/kg AT-002 or 4 mg/kg AT-002. The test article was a flavored solution formulation very similar to the final formulation. Study activities are summarized at Table 5.
The percent change in food consumption from baseline (average of Day −3, Day −2, and Day −1) compared to the treatment period (average of Day 1 through Day 10) was calculated for each cat, and is summarized at Table 6. The mean percent change from baseline to the treatment period for the placebo group increased 13.0%.
The percent change in bodyweight from Day −1 compared to Day 10 was calculated for each cat, and is summarized at table 7. The mean percent change for the placebo group was −0.35%, indicating a decrease in weight. […] The 4 mg/kg AT-002 group approached statistical significance (p=0.0502)

IGF-1 [2] = assay: Capromorelin efficacy in cats for 21 days: serum IGF-1 levels; assay type: in vivo
Experimental: Thirty-two cats (16 neutered males, 16 females) were divided into 4 treatment groups including 4 animals of each sex per group. The cats were acclimated to the study environment for 10 days prior to study start. All cats were orally dosed with placebo (Group 1) or capromorelin (30 mg/ml oral solution, Formulation 9 as described above) at 1 mg/kg (Group 2), 2 mg/kg (Group 3) or 3 mg/kg (Group 4), for 21 days, with dosing starting on Day 1. Physical examinations were performed on Day −10 and general health observations made daily. Body weights were evaluated on Days −10, −8, −1, 1, 8, 15 and 22 days. Cats were fed about 1 hour after dosing. Commercial dry cat food (300 g) was provided for 5 hours and then removed and the amount of food consumed (g) calculated per cat. On Days 1, 14 and 21, blood samples were collected prior to daily dose administration and at 8 hours post-dose and serum processed for measurement of IGF-1 levels.

GH = assay: One-year dog safety study: GH plasma levels; assay type: in vivo, Beagle dogs; settings: dogs, Days 1, 170 and 351 following treatment
Experimental: This study evaluated the safety of capromorelin in dogs. Thirty-two Beagle dogs were randomly assigned to four groups (n=4/sex/group) and received 0 mg/kg, 0.39 mg/kg, 9.2 mg/kg, or 52.4 mg/kg capromorelin (with the dose calculated per the tartrate salt) once daily by oral gavage for 12 consecutive months. Safety parameters were evaluated including clinical signs, food consumption, bodyweight, clinical pathology, urinalysis, ophthalmology, electrocardiogram and vital signs. Capromorelin, GH and IGF-1 were measured in plasma samples collected at various time points during the study. At the end of the dosing period, dogs were humanely euthanized and necropsied. Selected organs were weighed and tissue samples collected and processed for microscopic examination.

IGF-1 [3] = assay: Example 9 field study: IGF-1 serum levels; assay type: in vivo; settings: cats with CKD, 2 mg/kg once daily
Experimental: A 1-mL blood sample was collected into a vacutainer tube containing no anticoagulant at the screening/qualification/Day 0, Day 30±2, Day 60±3 and Day 90±3 or at the last study visit (i.e. early removal). Blood samples were kept at room temperature and allowed to clot for about 1 hour. Clotted samples were centrifuged for approximately 15 minutes at 3000 RPM.

[4] = Safety and effectiveness of daily capromorelin in cats with CKD for 90 days (field study, Example 9); assay type: in vivo
Experimental: This study was to confirm the safety and effectiveness of AT-002 (capromorelin) in cats under field conditions using a dose of 2 mg/kg administered once daily for 90 days. The study tested the hypotheses that AT-002 will maintain or increase bodyweight, improve body condition score (BCS), improve muscle condition score (MCS), improve appetite and/or improve quality of life (QoL) in cats. This was a double-masked, randomized, placebo-controlled, multi-site, proof of concept field study.
This study enrolled cats diagnosed with chronic kidney disease (CKD) and a minimum 6-month history of losing weight. The enrollment target was for a minimum of 15 evaluable cases in the AT-002 group and 15 evaluable cases in the Control Product (CP; placebo) group. The Investigator and all study personnel were masked to treatment code (A or B) and treatment group (AT-002 or CP). The Dispenser and Owner remained blinded to treatment group (AT-002 or CP).
Cats were treated with a dosage of 2 mg/kg body weight of AT-002 (AT-002) or a placebo (CP) formulation at the same dose volume as the AT-002 once daily for 90±3 days. Day 0 was the first day of dosing. Cats were evaluated on Day 0, Day 14±1, Day 30±2, Day 60±3 and Day 90±3. The primary effectiveness variable was change in bodyweight from Day 0 through Day 90±3. Secondary effectiveness variables included BCS, MCS, owner appetite assessments and owner QoL assessments.
After enrollment, each case was randomly assigned to AT-002 or CP in a 1:1 ratio. The enrollment target was at least 30 evaluable cases (15 AT-002 and 15 CP) per the study randomization schedule across all sites.
Cats included in the study were spayed/neutered cats of any age and breed with a documented historical decrease in bodyweight over the previous 6 months, and a diagnosis of chronic kidney disease (IRIS stages II, III or IV). Cats on medications for certain stable, chronic conditions were allowed. Excluded from the study were cats in crisis or moribund, cats with documented and uncontrolled hyperthyroidism or inflammatory bowel disease, cats in which food intake is contraindicated (i.e. suspected foreign body, gastrointestinal surgery), cats with dental disease severe enough to impair food intake, cats with diabetes, and cats currently receiving prohibited medications.
The Owner maintained the feeding regime the cat was on at study enrollment. No special foods and no special feeding schedule were required. Water was available ad libitum. The cat's diet was monitored and a “Diet History” completed when the Investigator interviewed the Owner at screening/qualification (Day 0), Day 30±2, Day 60±3 and Day 90±3 or at the last study visit (i.e. early removal).
Bodyweight was measured in pounds to the nearest tenth decimal place as part of the physical examination at screening/qualification/Day 0, Day 14±1, Day 30±2, Day 60±3 and Day 90±3 and at the time of any unscheduled visit or early removal from the study. […]

CN1N=C2CCN(C(=O)[C@@H](COCc3ccccc3)NC(=O)C(C)(C)N)C[C@@]2(Cc2ccccc2)C1=O.O=C(O)C(O)C(O)C(=O)O [capromorelin, N-[(2R)-1-[(3aR)-2-methyl-3-oxo-3a-(phenylmethyl)-6,7-dihydro-4H-pyrazolo[4,3-c]pyridin-5-yl]-1-oxo-3-(phenylmethoxy)propan-2-yl]-2-amino-2-methylpropanamide L-tartrate]
Food Consumption, Percent Change From Baseline ([1]; 1 mg/kg SID, Day 1-10 vs Days -3 to -1): 30.54% | Bodyweight, Percent Change From Baseline ([1]; 1 mg/kg SID, Day -1 to Day 10): 3.07% | Food Consumption, Percent Change From Baseline ([1]; 2 mg/kg SID, Day 1-10 vs Days -3 to -1): 45.53% | Bodyweight, Percent Change From Baseline ([1]; 2 mg/kg SID, Day -1 to Day 10): 3.66% | Food Consumption, Percent Change From Baseline ([1]; 3 mg/kg SID, Day 1-10 vs Days -3 to -1): 54.04% | Bodyweight, Percent Change From Baseline ([1]; 3 mg/kg SID, Day -1 to Day 10): 5.72% | Food Consumption, Percent Change From Baseline ([1]; 4 mg/kg SID, minus 5F1, Day 1-10 vs Days -3 to -1): 78.82% | Bodyweight, Percent Change From Baseline ([1]; 4 mg/kg SID, minus 5F1, Day -1 to Day 10): 3.57% | group mean serum IGF-1 increase from 0 to 8 hours post-dose (IGF-1 [2]; 1 mg/kg (Group 2), Day 1): 46.69% | group mean serum IGF-1 increase from 0 to 8 hours post-dose (IGF-1 [2]; 1 mg/kg (Group 2), Day 14): 17.27% | group mean serum IGF-1 increase from 0 to 8 hours post-dose (IGF-1 [2]; 1 mg/kg (Group 2), Day 21): 9.81% | group mean serum IGF-1 increase from 0 to 8 hours post-dose (IGF-1 [2]; 2 mg/kg (Group 3), Day 1): 29.38% | group mean serum IGF-1 increase from 0 to 8 hours post-dose (IGF-1 [2]; 2 mg/kg (Group 3), Day 14): 9.00% | group mean serum IGF-1 increase from 0 to 8 hours post-dose (IGF-1 [2]; 2 mg/kg (Group 3), Day 21): 2.68% | group mean serum IGF-1 increase from 0 to 8 hours post-dose (IGF-1 [2]; 3 mg/kg (Group 4), Day 1): 36.77% | group mean serum IGF-1 increase from 0 to 8 hours post-dose (IGF-1 [2]; 3 mg/kg (Group 4), Day 14): 18.56% | group mean serum IGF-1 increase from 0 to 8 hours post-dose (IGF-1 [2]; 3 mg/kg (Group 4), Day 21): 5.17% | GH plasma levels (GH): increased modestly | IGF-1 serum levels following administration (IGF-1 [3]): increase | adverse events with evidence for a potential relationship to treatment ([4]; 2 mg/kg once daily, 90 days): increased salivation and potentially vomiting | tolerability ([4]; 2 mg/kg once daily, 90 days): well-tolerated | body condition score, muscle condition score, owner appetite assessment and quality of life parameters ([4]; 2 mg/kg once daily, vs placebo): no meaningful statistical differences | bodyweight during the treatment period ([4]; 2 mg/kg oral once daily, 90 days): gained weight | mean descriptive (monthly) quality of life score ([4]; 2 mg/kg, Day 0 to Day 90): remained the same
